The target of assay [1] is T1, Amyloid-beta precursor protein (Homo sapiens, UniProt P05067). The assay can be described thus: Inhibition of amyloid beta (1 to 42) (unknown origin) aggregation at 50 uM measured after 3 hrs by Thioflavin T-based fluorometric assay.
Assay [2] concerns the target T1, Amyloid-beta precursor protein. Kind of assay: Inhibition of human amyloid beta (1 to 42) aggregation at 100 uM measured after 72 hrs by Thioflavin T-based fluorometric assay.
The target in a further assay is Acetylcholinesterase (Homo sapiens, UniProt P22303). The assay can be described thus: Inhibition of human AChE assessed as hydrolytic activity using acetylthiocholine iodide as substrate measured for 15 mins by Ellmans assay. A general note: Ellman's reagent forms a yellow product with free thiols.
Acetylcholinesterase, sequence (P22303 whole entry): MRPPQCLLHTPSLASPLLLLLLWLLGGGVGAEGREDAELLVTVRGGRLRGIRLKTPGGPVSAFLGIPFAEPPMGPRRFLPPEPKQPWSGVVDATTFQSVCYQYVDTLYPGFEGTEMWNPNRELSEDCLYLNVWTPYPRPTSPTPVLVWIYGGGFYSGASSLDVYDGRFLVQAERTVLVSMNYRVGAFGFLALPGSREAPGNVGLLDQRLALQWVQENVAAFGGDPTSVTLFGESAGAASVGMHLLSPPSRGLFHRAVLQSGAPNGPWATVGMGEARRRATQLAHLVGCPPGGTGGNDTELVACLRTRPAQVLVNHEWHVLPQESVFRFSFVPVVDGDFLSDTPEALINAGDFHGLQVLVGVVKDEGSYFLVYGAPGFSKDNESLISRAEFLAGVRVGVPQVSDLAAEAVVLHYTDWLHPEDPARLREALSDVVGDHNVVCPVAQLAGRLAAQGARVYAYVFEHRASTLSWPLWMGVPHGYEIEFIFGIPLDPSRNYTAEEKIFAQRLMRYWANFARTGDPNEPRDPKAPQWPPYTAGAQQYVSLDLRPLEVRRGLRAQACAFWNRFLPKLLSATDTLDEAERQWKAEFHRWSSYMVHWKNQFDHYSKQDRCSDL
The next assay concerns the target Cholinesterase (Homo sapiens, UniProt P06276). The assay can be described thus: Inhibition of human BuChE assessed as hydrolytic activity using butyrylthiocholine iodide as substrate measured for 15 mins by Ellmans assay.
Assay [3] deals with T1, Amyloid-beta precursor protein. The assay can be described thus: Inhibition of amyloid beta (1 to 42) (unknown origin) aggregation measured after 24 hrs by Thioflavin T-based fluorometric assay.

The term inhibition denotes the share of the control response that was lost under treatment. Read a high inhibition as strong suppression. One may read the IC50 as the concentration that gives 50% inhibition.

Cholinesterase, sequence (P06276 whole entry): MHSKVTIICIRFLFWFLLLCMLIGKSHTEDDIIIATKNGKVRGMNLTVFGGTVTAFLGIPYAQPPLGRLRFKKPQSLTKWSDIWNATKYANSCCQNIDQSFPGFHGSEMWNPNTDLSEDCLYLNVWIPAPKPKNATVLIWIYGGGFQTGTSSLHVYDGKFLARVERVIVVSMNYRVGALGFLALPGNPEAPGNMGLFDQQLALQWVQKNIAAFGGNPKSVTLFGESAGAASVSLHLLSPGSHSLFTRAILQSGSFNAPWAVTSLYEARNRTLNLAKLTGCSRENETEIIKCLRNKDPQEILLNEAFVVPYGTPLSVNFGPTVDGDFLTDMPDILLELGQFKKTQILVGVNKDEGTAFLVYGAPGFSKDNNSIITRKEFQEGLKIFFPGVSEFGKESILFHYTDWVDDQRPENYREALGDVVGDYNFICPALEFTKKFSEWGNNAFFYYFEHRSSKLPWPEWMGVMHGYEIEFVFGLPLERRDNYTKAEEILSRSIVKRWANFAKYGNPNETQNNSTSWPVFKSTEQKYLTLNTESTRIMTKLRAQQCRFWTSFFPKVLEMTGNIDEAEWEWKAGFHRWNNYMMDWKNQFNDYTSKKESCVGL
T1 sequence (P05067 whole entry): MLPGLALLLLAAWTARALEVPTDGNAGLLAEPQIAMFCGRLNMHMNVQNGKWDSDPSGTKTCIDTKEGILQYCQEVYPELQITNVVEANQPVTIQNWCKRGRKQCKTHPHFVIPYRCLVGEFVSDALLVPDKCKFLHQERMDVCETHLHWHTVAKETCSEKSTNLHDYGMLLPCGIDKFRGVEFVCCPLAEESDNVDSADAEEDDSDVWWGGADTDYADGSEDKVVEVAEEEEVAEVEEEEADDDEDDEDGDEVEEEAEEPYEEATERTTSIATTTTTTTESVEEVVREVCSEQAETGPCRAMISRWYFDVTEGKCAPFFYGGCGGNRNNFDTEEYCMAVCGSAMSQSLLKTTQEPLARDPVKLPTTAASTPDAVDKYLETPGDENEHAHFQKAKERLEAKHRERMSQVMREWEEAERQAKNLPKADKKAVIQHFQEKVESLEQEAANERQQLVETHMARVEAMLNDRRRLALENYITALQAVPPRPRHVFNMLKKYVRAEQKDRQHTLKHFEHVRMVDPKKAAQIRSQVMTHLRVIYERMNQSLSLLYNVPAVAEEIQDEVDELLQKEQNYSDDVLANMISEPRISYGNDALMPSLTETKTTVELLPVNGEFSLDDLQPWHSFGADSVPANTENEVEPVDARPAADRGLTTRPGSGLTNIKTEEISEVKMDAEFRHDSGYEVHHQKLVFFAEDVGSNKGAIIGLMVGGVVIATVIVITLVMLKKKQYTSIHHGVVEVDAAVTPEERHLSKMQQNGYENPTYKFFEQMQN

For `CC(C)CCNC(=O)c1cc(Cc2ccccc2)cc(Oc2ccccc2)n1`, the inhibition in assay [1] worked out at 71%.

In assay [2], `C[N+](C)(C)CCOC(=O)c1ccc(Oc2nc(Oc3ccc(C(=O)OCC[N+](C)(C)C)cc3)nc(Oc3ccc(C(=O)OCC[N+](C)(C)C)cc3)n2)cc1` displayed an inhibition of 50.9%. In addition, the figures for the IC50 at Acetylcholinesterase and at Cholinesterase were 0.3 µM and 3.9 µM, respectively.

With `O=C(NC1C2CC3CC(C2)CC1C3)c1nc(Cc2ccccc2)cc(Oc2ccccc2)n1` (centres undefined), the inhibition in assay [1] worked out at 47%.

For `Cc1ccc(-c2cc(NCCNc3cc(-c4cccs4)[nH]n3)n[nH]2)cc1`, the IC50 in assay [3] worked out at 29 µM.

For `CC(COC(=O)c1ccc(Oc2nc(Oc3ccc(C(=O)OCC(C)N(C)C)cc3)nc(Oc3ccc(C(=O)OCC(C)N(C)C)cc3)n2)cc1)N(C)C` (centres undefined), the inhibition in assay [2] is 68.5%. The IC50 amounted to 80.8 µM at Acetylcholinesterase and 164 µM at Cholinesterase.

`CN(C)c1ccc(-c2cc(NCCNc3cc(-c4ccc(N(C)C)cc4)[nH]n3)n[nH]2)cc1` gave an IC50 in assay [3] of 7.5 µM.

The compound `COc1nc(Oc2ccc(C(=O)OCC(C)N(C)C)cc2)nc(Oc2ccc(C(=O)OCC(C)N(C)C)cc2)n1` (centres undefined) registered an inhibition in assay [2] of 58.4%. Moreover, the IC50 was 111 µM on Acetylcholinesterase and more than 200 µM at Cholinesterase.

The compound `Fc1ccc(-c2cc(NCCNc3cc(-c4ccc(F)cc4)[nH]n3)n[nH]2)cc1` had an IC50 in assay [3] of 40.5 µM.

The values above are taken from ChEMBL document CHEMBL3779862, “Amyloid cascade in Alzheimer's disease: Recent advances in medicinal chemistry” (Eur J Med Chem, 2016).
